For test [1], the target named is T1, Ketohexokinase (Homo sapiens, UniProt P50053).
T1 sequence (P50053 whole entry): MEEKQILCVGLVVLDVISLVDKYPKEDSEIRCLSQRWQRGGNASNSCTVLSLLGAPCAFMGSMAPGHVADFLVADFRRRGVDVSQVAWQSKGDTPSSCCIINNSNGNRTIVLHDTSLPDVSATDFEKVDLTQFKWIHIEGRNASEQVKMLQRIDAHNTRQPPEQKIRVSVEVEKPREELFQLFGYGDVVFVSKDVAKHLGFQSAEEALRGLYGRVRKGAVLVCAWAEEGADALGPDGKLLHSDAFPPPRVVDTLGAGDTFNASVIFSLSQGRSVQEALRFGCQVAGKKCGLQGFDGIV
Description: Inhibition of human ketohexokinase isoform C expressed in Escherichia coli BL21 (DE3) cells using D-fructose as substrate after 12 to 15 mins by fluorescence polarization assay.

The target of test [2] is T1, Ketohexokinase. Description: Inhibition of ketokinase isoform C in human HepG2 cells assessed as levels of fructose-1-phosphate preincubated for 30 mins followed by substrate addition measured after 3 hrs by LC-MS analysis. In kind it is cell-based.

Each structure is given as a SMILES string.

A word on the IC50: it is the concentration that inhibits the measured activity by half.

As for `Cc1cccc(Nc2nc(N3CCNCC3)nc3c(NCC4CC4)ncnc23)c1`, the IC50 in test [1] came to 2800 nM.
In test [1], `Cc1ccccc1Nc1nc(N2CCNCC2)nc2c(NCc3nccs3)ncnc12` displayed an IC50 of 60 nM.
Still for that read-out and setting: for `Cc1ccccc1Nc1nc(N2CCOCC2)nc2c(NCC3CC3)ncnc12` the value was > 7000 nM; for `CCc1ccccc1Nc1nc(N2CCNCC2)nc2c(NCC3CC3)ncnc12`, 130 nM.
`CSc1ccccc1Nc1nc(N2CCNCC2)nc2c(NCC3CCC3)ncnc12` showed an IC50 in test [1] of 18 nM.
On to `CSc1ccccc1Nc1nc(N2CCNCC2)nc2c(N)ncnc12`, for which the values for the IC50 in test [1] and in test [2] were 7.1 nM and 78 nM, respectively.
Regarding `CSc1ccc(Nc2nc(N3CCNCC3)nc3c(NCC4CC4)ncnc23)cc1`, the IC50 in test [1] was > 9000 nM.
Same read-out and setting: the figure for `CNc1ncnc2c(Nc3ccccc3C)nc(N3CCNCC3)nc12` is 400 nM; for `Clc1ccccc1Nc1nc(N2CCNCC2)nc2c(NCC3CC3)ncnc12` it is 540 nM; for `CCOc1ccccc1Nc1nc(N2CCNCC2)nc2c(NCC3CC3)ncnc12` it is 200 nM.
Consider `CSc1ccccc1Nc1nc(N2CC3(CNC3)C2)nc2c(NCC3CC3)ncnc12`, for which the IC50 in test [2] stood at 360 nM.
`CSc1ccccc1Nc1nc(N2CCN(C)CC2)nc2c(NCC3CC3)ncnc12`: in test [1], the IC50 amounted to 110 nM.
On the same count and under the same terms, the figure for `Cc1ccccc1Nc1nc(N2CCNCC2)nc2c(NCc3cccs3)ncnc12` is 300 nM; for `CCCCCCNc1ncnc2c(Nc3ccccc3C)nc(N3CCNCC3)nc12` it is 1600 nM.
On the same count and under the same terms, for `CNCCN(C)c1nc(Nc2ccccc2SC)c2ncnc(NCC3CC3)c2n1` the value was 130 nM; for `c1nc(NCC2CC2)c2nc(N3CCNCC3)nc(NC3CC3)c2n1`, > 9000 nM; for `CC(C)c1ccccc1Nc1nc(N2CCNCC2)nc2c(NCC3CC3)ncnc12`, 5000 nM.
Consider `CSc1ccccc1Nc1nc(N2CC(CN)C2)nc2c(NCC3CC3)ncnc12`, for which the figures for the IC50 in test [1] and in test [2] were 30 nM and 590 nM, respectively.
For `COc1ccccc1Nc1nc(N2CCNCC2)nc2c(NCC3CC3)ncnc12`, in test [1], inhibition was half-maximal at 100 nM (IC50).
The same measure, in the same setting: for `CS(=O)(=O)c1ccccc1Nc1nc(N2CCNCC2)nc2c(NCC3CC3)ncnc12` the value was > 9000 nM; for `CSc1cccc(Nc2nc(N3CCNCC3)nc3c(NCC4CC4)ncnc23)c1`, 2000 nM; for `Fc1ccccc1Nc1nc(N2CCNCC2)nc2c(NCC3CC3)ncnc12`, 1500 nM.
On the same count and under the same terms, for `C#CCNc1ncnc2c(Nc3ccccc3C)nc(N3CCNCC3)nc12` the value was 300 nM; for `Cc1ccccc1Nc1nc(N2CCC(N)CC2)nc2c(NCC3CC3)ncnc12`, 200 nM.
Same read-out and setting: the figure for `CCN(CC)c1ncnc2c(Nc3ccccc3C)nc(N3CCNCC3)nc12` is 1700 nM.
For `Cc1ccccc1Nc1nc(N2CCNCC2)nc2c(NCC3CC3)ncnc12`, the IC50 in test [2] worked out at 2400 nM.
`c1ccc(C2CC2)c(Nc2nc(N3CCNCC3)nc3c(NCC4CC4)ncnc23)c1`: the IC50 in test [1] is 380 nM.
In the case of `Cc1ccccc1Nc1nc(NC2CCNCC2)nc2c(NCC3CC3)ncnc12`, the IC50 in test [1] was found to be 710 nM.
The same measure, in the same setting: the figure for `Brc1ccccc1Nc1nc(N2CCNCC2)nc2c(NCC3CC3)ncnc12` is 170 nM.
The same measure, in the same setting: the figure for `c1nc(NCC2CC2)c2nc(N3CCNCC3)nc(NC3CCCCC3)c2n1` is > 9000 nM; for `CSc1ccccc1Nc1nc(N2CCC[C@@H](N)C2)nc2c(NCC3CC3)ncnc12` it is 18 nM; for `CSc1ccccc1Nc1nc(N2CCC(CN(C)C)CC2)nc2c(NCC3CC3)ncnc12` it is 140 nM.
On the same count and under the same terms, the figure for `Cc1ccccc1Nc1nc(N2CCN(C)CC2)nc2c(NCC3CC3)ncnc12` is 1500 nM.
Regarding `CSc1ccccc1Nc1nc(N2CCNCC2)nc2c(NCc3nccs3)ncnc12`, the figures for the IC50 in test [1] and in test [2] were 16 nM and 270 nM, respectively.
As to `FC(F)(F)Sc1ccccc1Nc1nc(N2CCNCC2)nc2c(NCC3CC3)ncnc12`, the IC50 in test [1] turned out to be 3000 nM.
Same read-out and setting: for `Cc1ccccc1Nc1nc(N2CCNCC2)nc2c(NCc3ccccc3)ncnc12` the value was 400 nM.
As for `COCCNc1ncnc2c(Nc3ccccc3SC)nc(N3CCNCC3)nc12`, the IC50 in test [1] was 7 nM; in test [2], 140 nM.
`c1ccc(Nc2nc(N3CCNCC3)nc3c(NCC4CC4)ncnc23)cc1` had an IC50 in test [1] of 3200 nM.
`CSc1ccccc1Nc1nc(N2CCC[C@H](N)C2)nc2c(NCC3CC3)ncnc12`: half-maximal inhibition in test [1] (IC50) was put at 23 nM.
Regarding `CCSc1ccccc1Nc1nc(N2CCNCC2)nc2c(NCC3CC3)ncnc12`, the IC50 in test [1] was > 9000 nM.
`Cc1ccccc1Nc1nc(N2CCNCC2)nc2c(NC3CCCCC3)ncnc12` had an IC50 in test [1] of 2300 nM.
The same measure, in the same setting: for `CSc1ccccc1Nc1nc(N2CCNCC2)nc2c(NCCC3CC3)ncnc12` the value was 50 nM.
The same measure, in the same setting: the figure for `CCCNc1ncnc2c(Nc3ccccc3C)nc(N3CCNCC3)nc12` is 400 nM; for `Cc1ccccc1Nc1nc(N2CCCNCC2)nc2c(NCC3CC3)ncnc12` it is 300 nM.
Still for that read-out and setting: for `CSc1ccccc1Nc1nc(N2CCNCC2)nc2c(NCc3cccs3)ncnc12` the value was 30 nM.
Molecule `CSc1ccccc1Nc1nc(N2CCC(CN)CC2)nc2c(NCC3CC3)ncnc12` registered an IC50 in test [1] of 10 nM.
In test [1], `Cc1ccccc1Nc1nc(N2CCC(CN)CC2)nc2c(NCC3CC3)ncnc12` had an IC50 of 70 nM.
`CSc1ccccc1Nc1nc(N2CCNCC2)nc2c(NCc3ccccn3)ncnc12`: the IC50 in test [1] was 9.8 nM; in test [2] it was 270 nM.

These data come from ChEMBL document CHEMBL2016462, “Inhibitors of Ketohexokinase: Discovery of Pyrimidinopyrimidines with Specific Substitution that Complements the ATP-Binding Site” (ACS Med Chem Lett, 2011).
